The results in this text go back to ChEMBL document CHEMBL1123236, “Cardiac glycosides. 7. Sugar stereochemistry and cardiac glycoside activity” (J Med Chem, 1986).

Molecules are shown by their SMILES.

For this assay, the target named is Sodium/potassium-transporting ATPase. The assay is described as follows: Inhibition of hog kidney Na+, K+-dependent ATPase. Type of assay: protein-complex assay, Sus scrofa. As to conditions: read-out: I50.

For `C[C@H]1O[C@@H](O[C@H]2CC[C@@]3(C)[C@H](CC[C@@H]4[C@@H]3CC[C@]3(C)[C@@H](C5=CC(=O)OC5)CC[C@]43O)C2)C[C@H](O)[C@@H]1O`, the IC50 was determined as 7.04 nM.

On to `C[C@]12CC[C@H](O[C@@H]3O[C@@H](CO)[C@H](O)[C@@H](O)[C@H]3O)C[C@H]1CC[C@@H]1[C@@H]2CC[C@]2(C)[C@@H](C3=CC(=O)OC3)CC[C@]12O`, for which the IC50 was found to be 87 nM.

`C[C@]12CC[C@H](O[C@H]3O[C@H](CO)[C@@H](O)[C@H](O)[C@H]3O)C[C@H]1CC[C@@H]1[C@@H]2CC[C@]2(C)[C@@H](C3=CC(=O)OC3)CC[C@]12O` (stereo in doubt; 3c): the IC50 stood at 129 nM.

For `C[C@]12CC[C@H](O[C@H]3O[C@H](CO)[C@@H](O)[C@H](O)[C@H]3O)C[C@H]1CC[C@@H]1[C@@H]2CC[C@]2(C)[C@@H](C3=CC(=O)OC3)CC[C@]12O` (stereo in doubt; 3d), the IC50 amounted to 38.9 nM.

As to `C[C@]12CC[C@H](O[C@H]3O[C@H](CO)[C@@H](O)[C@H](O)[C@H]3O)C[C@H]1CC[C@@H]1[C@@H]2CC[C@]2(C)[C@@H](C3=CC(=O)OC3)CC[C@]12O` (stereo in doubt; 4a), the IC50 stood at 60.3 nM.

In the case of `C[C@]12CC[C@H](O[C@H]3O[C@H](CO)[C@@H](O)[C@H](O)[C@H]3O)C[C@H]1CC[C@@H]1[C@@H]2CC[C@]2(C)[C@@H](C3=CC(=O)OC3)CC[C@]12O` (stereo in doubt; 4b), the IC50 is 16 nM.

`C[C@]12CC[C@H](O[C@H]3O[C@H](CO)[C@@H](O)[C@H](O)[C@H]3O)C[C@H]1CC[C@@H]1[C@@H]2CC[C@]2(C)[C@@H](C3=CC(=O)OC3)CC[C@]12O` (stereo in doubt; 4c): the IC50 was 93.3 nM.

For `C[C@]12CC[C@H](O[C@H]3O[C@H](CO)[C@@H](O)[C@H](O)[C@H]3O)C[C@H]1CC[C@@H]1[C@@H]2CC[C@]2(C)[C@@H](C3=CC(=O)OC3)CC[C@]12O` (stereo in doubt; 4d), the IC50 was 10.5 nM.

On to `CC12CCC(O[C@H]3O[C@H](CO)[C@H](O)[C@H](O)[C@H]3O)CC1CCC1C2CC[C@]2(C)C(C3=CC(=O)OC3)CCC12O` (stereo in doubt; form 1), for which the IC50 is 64.5 nM.

Turning to `C[C@@H]1O[C@@H](O[C@H]2CC[C@@]3(C)[C@H](CC[C@@H]4[C@@H]3CC[C@]3(C)[C@@H](C5=CC(=O)OC5)CC[C@]43O)C2)[C@H](O)[C@H](O)[C@H]1O` (stereo in doubt; form 1), the IC50 stood at 4.79 nM.

`CC12CCC(O[C@H]3O[C@H](CO)[C@H](O)[C@H](O)[C@H]3O)CC1CCC1C2CC[C@]2(C)C(C3=CC(=O)OC3)CCC12O` (stereo in doubt; form 2): the IC50 was 17.8 nM.

Regarding `C[C@@H]1O[C@@H](O[C@H]2CC[C@@]3(C)[C@H](CC[C@@H]4[C@@H]3CC[C@]3(C)[C@@H](C5=CC(=O)OC5)CC[C@]43O)C2)[C@H](O)[C@H](O)[C@H]1O` (stereo in doubt; form 2), the IC50 stood at 6.79 nM.

For `C[C@]12CC[C@H](O[C@@H]3O[C@@H](CO)[C@@H](O)[C@H](O)[C@@H]3O)C[C@H]1CC[C@@H]1[C@@H]2CC[C@]2(C)[C@@H](C3=CC(=O)OC3)CC[C@]12O` (stereo in doubt; form 2), the IC50 was determined as 10.7 nM.
